# Counter-ions that a name gives are not always drawn. Like-named read-outs stand apart in the source and are kept apart here. Where a SMILES comes first, the peptide text is derived from it. [ ]: non-standard residue; d: D form. dPhe(4-Cl) = N[C@H](Cc1ccc(Cl)cc1)C(=O)O; d2Nal = N[C@H](Cc1ccc2ccccc2c1)C(=O)O; Lys(iPr) = CC(C)NCCCC[C@H](N)C(=O)O; NMeY = CN[C@@H](Cc1ccc(O)cc1)C(=O)O; d3Pal = N[C@H](Cc1cccnc1)C(=O)O
# Tests used:
# [1] = biological target: T1, SARS-CoV-2 PLpro (nsp3 1564–1878) (Severe acute respiratory syndrome coronavirus 2, UniProt P0DTD1); assay: biochemical; set-up: FRET-quenched peptide (Pro3) cleavage by PLpro, 10 min pre-incubation, slope over 20 min, normalised to no-compound control; details: low concentration screen, read-out: % of control remaining
# [2] = biological target: T1, SARS-CoV-2 PLpro (nsp3 1564–1878); assay: biochemical; set-up: FRET-quenched peptide (Pro3) cleavage by PLpro, 10 min pre-incubation, slope over 20 min, normalised to no-compound control; details: high concentration screen, read-out: % of control remaining
structure (smiles),measurement,setting,value
Cc1cc(N2C[C@@H](C)N[C@@H](C)C2)ncc1-c1ccc(-c2nc3c(ccn3C)c(=O)[nH]2)cc1 [AZ6102],remaining activity at 1.25 µM,[1]; Well no.=8482,97.8%
same,remaining activity at 3.75 µM,[2]; Well no.=8482,96.4%
COc1cc(OC2CCN(C)CC2)ccc1Nc1ncc2c(n1)n(C1CCCC1)c(=O)n2C [AZ 3146],remaining activity at 1.25 µM,[1]; Well no.=5029,102%
same,remaining activity at 3.75 µM,[2]; Well no.=5029,101%
Cc1cc(Nc2nc(N[C@@H](C)c3ccc(F)cc3)c(C#N)cc2F)n[nH]1 [AZ-960],remaining activity at 1.25 µM,[1]; Well no.=2980,93.6%
same,remaining activity at 3.75 µM,[2]; Well no.=2980,92.7%
CC(=O)Nc1cccc2c1c(Sc1ccc(Cl)cc1)c(C)n2CC(=O)O [AZD1981],remaining activity at 1.25 µM,[1]; Well no.=7131,98.7%
same,remaining activity at 3.75 µM,[2]; Well no.=7131,95.7%
CNC(=O)c1cccc(-c2ccc3c(N4CCOC[C@@H]4C)nc(N4CCOC[C@@H]4C)nc3n2)c1 [AZD2014],remaining activity at 1.25 µM,[1]; Well no.=5115,106%
same,remaining activity at 3.75 µM,[2]; Well no.=5115,107%
COc1nccnc1NS(=O)(=O)c1cccc(Cl)c1Cl [AZD2098],remaining activity at 1.25 µM,[1]; Well no.=8225,102%
same,remaining activity at 3.75 µM,[2]; Well no.=8225,98.6%
COC1CCN(C(=O)c2cc(Cc3n[nH]c(=O)c4ccccc34)ccc2F)CC1 [AZD2461],remaining activity at 1.25 µM,[1]; Well no.=5172,105%
same,remaining activity at 3.75 µM,[2]; Well no.=5172,102%
COc1cc(CCc2cc(NC(=O)c3ccc(N4C[C@@H](C)N[C@@H](C)C4)cc3)n[nH]2)cc(OC)c1 [AZD4547],remaining activity at 1.25 µM,[1]; Well no.=5125,101%
same,remaining activity at 3.75 µM,[2]; Well no.=5125,93.9%
Cc1cc(-c2nnc(N)nc2-c2ccc(F)cc2)cc(Cl)n1 [AZD4635],remaining activity at 1.25 µM,[1]; Well no.=8355,98.3%
same,remaining activity at 3.75 µM,[2]; Well no.=8355,96%
CN[C@@H](C)C(=O)N[C@H](C(=O)N1CCC[C@H]1C(=O)N[C@H]1c2ccccc2C[C@H]1OCC#CC#CCO[C@@H]1Cc2ccccc2[C@@H]1NC(=O)[C@@H]1CCCN1C(=O)[C@@H](NC(=O)[C@H](C)NC)C1CCCCC1)C1CCCCC1 [AZD5582],remaining activity at 1.25 µM,[1]; Well no.=6358,102%
same,remaining activity at 1.25 µM,[1]; Well no.=8416,98.4%
same,remaining activity at 3.75 µM,[2]; Well no.=6358,101%
same,remaining activity at 3.75 µM,[2]; Well no.=8416,93.5%
Cn1cnc2c(F)c(Nc3ccc(Br)cc3Cl)c(C(=O)NOCCO)cc21 [AZD6244],remaining activity at 1.25 µM,[1]; Well no.=3028,95.9%
same,remaining activity at 3.75 µM,[2]; Well no.=3028,95.3%
CN(C)C(=O)c1ccc(S(=O)(=O)c2ccc(NC(=O)[C@@](C)(O)C(F)(F)F)c(Cl)c2)cc1 [AZD7545],remaining activity at 1.25 µM,[1]; Well no.=8528,101%
same,remaining activity at 3.75 µM,[2]; Well no.=8528,98.2%
NC(=O)Nc1cc(-c2cccc(F)c2)sc1C(=O)N[C@H]1CCCNC1 [AZD7762],remaining activity at 1.25 µM,[1]; Well no.=2691,94.4%
same,remaining activity at 3.75 µM,[2]; Well no.=2691,95%
COc1ccc(-c2ccc3c(N4CCOC[C@@H]4C)nc(N4CCOC[C@@H]4C)nc3n2)cc1CO [AZD8055],remaining activity at 1.25 µM,[1]; Well no.=5293,99.1%
same,remaining activity at 3.75 µM,[2]; Well no.=5293,97.4%
Cc1cc(C(=O)NOCCO)c(Nc2ccc(I)cc2F)n(C)c1=O [AZD8330],remaining activity at 1.25 µM,[1]; Well no.=5104,107%
same,remaining activity at 3.75 µM,[2]; Well no.=5104,106%
CC(C)C[C@H](CO)Nc1nc(S[C@@H](C)c2ccccc2)nc2nc(N)sc12 [AZD8797],remaining activity at 1.25 µM,[1]; Well no.=8313,103%
same,remaining activity at 3.75 µM,[2]; Well no.=8313,103%
CNC(=O)CN1CCC(Oc2cc3c(Nc4cccc(Cl)c4F)ncnc3cc2OC)CC1 [AZD8931],remaining activity at 1.25 µM,[1]; Well no.=5144,103%
same,remaining activity at 3.75 µM,[2]; Well no.=5144,102%
C[C@@H](Oc1cc(NS(=O)(=O)N2CCC2)nc(SCc2cccc(F)c2F)n1)[C@@H](O)CO [AZD-5069],remaining activity at 1.25 µM,[1]; Well no.=8409,102%
same,remaining activity at 3.75 µM,[2]; Well no.=8409,101%
Cc1c2c(nn1C)CSCc1cc(n(C)n1)CSc1cc(c3ccccc3c1)OCCCc1c(C(=O)O)n(C)c3c-2c(Cl)ccc13 [AZD-5991],remaining activity at 1.25 µM,[1]; Well no.=7076,101%
same,remaining activity at 3.75 µM,[2]; Well no.=7076,98.9%
Nc1nc(NC2CC2)c2ncn([C@H]3C=C[C@@H](CO)C3)c2n1 [Abacavir sulfate],remaining activity at 1.25 µM,[1]; Well no.=5326,97.2%
same,remaining activity at 3.75 µM,[2]; Well no.=5326,95.9%
CC(=O)N[C@H](Cc1ccc2ccccc2c1)C(=O)N[C@H](Cc1ccc(Cl)cc1)C(=O)N[C@H](Cc1cccnc1)C(=O)N[C@@H](CO)C(=O)N(C)[C@@H](Cc1ccc(O)cc1)C(=O)N[C@H](CC(N)=O)C(=O)N[C@@H](CC(C)C)C(=O)N[C@@H](CCCCNC(C)C)C(=O)N1CCC[C@H]1C(=O)N[C@H](C)C(N)=O [Abarelix] (Ac-[d2Nal][dPhe(4-Cl)][d3Pal]S[NMeY][dN]L[Lys(iPr)]P[dA]-NH2),remaining activity at 1.25 µM,[1]; Well no.=6560,95.8%
same,remaining activity at 3.75 µM,[2]; Well no.=6560,98.6%
C[C@]12CC[C@H](O)CC1=CC[C@@H]1[C@@H]2CC[C@]2(C)C(c3cccnc3)=CC[C@@H]12 [Abiraterone (CB-7598)],remaining activity at 1.25 µM,[1]; Well no.=5047,101%
same,remaining activity at 3.75 µM,[2]; Well no.=5047,106%
CC(=O)O[C@H]1CC[C@@]2(C)C(=CC[C@@H]3[C@@H]2CC[C@]2(C)C(c4cccnc4)=CC[C@@H]32)C1 [Abiraterone Acetate (CB7630)],remaining activity at 1.25 µM,[1]; Well no.=5274,88.4%
same,remaining activity at 3.75 µM,[2]; Well no.=5274,79.5%
CC(=O)N[C@@H](C)C(=O)O [Ac-Ala-OH],remaining activity at 1.25 µM,[1]; Well no.=8696,96.5%
same,remaining activity at 3.75 µM,[2]; Well no.=8696,96.8%
COc1ccc(-c2cc(=O)c3c(O)cc(O)cc3o2)cc1 [Acacetine],remaining activity at 1.25 µM,[1]; Well no.=3398,94.2%
same,remaining activity at 3.75 µM,[2]; Well no.=3398,92.9%
C[C@H]1O[C@H](O[C@H]2[C@H](O)[C@@H](O)[C@@H](O[C@H]3[C@H](O)[C@@H](O)C(O)O[C@@H]3CO)O[C@@H]2CO)[C@H](O)[C@@H](O)[C@@H]1N[C@H]1C=C(CO)[C@@H](O)[C@H](O)[C@H]1O (stereo partly shown) [Acarbose],remaining activity at 1.25 µM,[1]; Well no.=5149,101%
same,remaining activity at 3.75 µM,[2]; Well no.=5149,104%
CCCC(=O)Nc1ccc(OCC(O)CNC(C)C)c(C(C)=O)c1 (stereo not shown) [Acebutolol (hydrochloride)],remaining activity at 1.25 µM,[1]; Well no.=6747,101%
same,remaining activity at 3.75 µM,[2]; Well no.=6747,97.2%
O=C(O)COC(=O)Cc1ccccc1Nc1c(Cl)cccc1Cl [Aceclofenac],remaining activity at 1.25 µM,[1]; Well no.=2071,103%
same,remaining activity at 3.75 µM,[2]; Well no.=2071,102%
Cn1c(=O)c2c(ncn2CC(=O)O)n(C)c1=O [Acefylline],remaining activity at 1.25 µM,[1]; Well no.=8081,102%
same,remaining activity at 1.25 µM,[1]; Well no.=8491,105%
same,remaining activity at 3.75 µM,[2]; Well no.=8081,100%
same,remaining activity at 3.75 µM,[2]; Well no.=8491,103%
CC(=O)N[C@@H](CCC(N)=O)C(=O)O [Aceglutamide],remaining activity at 1.25 µM,[1]; Well no.=7402,106%
same,remaining activity at 3.75 µM,[2]; Well no.=7402,102%
COc1ccc2c(c1)c(CC(=O)OCC(=O)O)c(C)n2C(=O)c1ccc(Cl)cc1 [Acemetacin],remaining activity at 1.25 µM,[1]; Well no.=2037,99.2%
same,remaining activity at 3.75 µM,[2]; Well no.=2037,97.7%
CC1=CC(=O)NS(=O)(=O)O1 [Acesulfame Potassium],remaining activity at 1.25 µM,[1]; Well no.=5318,94.9%
same,remaining activity at 3.75 µM,[2]; Well no.=5318,93.1%
CC(N)=O [Acetamide],remaining activity at 1.25 µM,[1]; Well no.=7,101%
same,remaining activity at 3.75 µM,[2]; Well no.=7,101%

# Source: PMC8286840, “Identifying SARS-CoV-2 antiviral compounds by screening for small molecule inhibitors of Nsp3 papain-like protease” (Biochemical Journal, 2021)
